Results from the supplement of paper PMC10307832.

Columns and labels:
Assay in all cases: relative viability (nuclei count vs DMSO), 5 days (fraction); higher = more cells survive
Imatinib + Palbociclib = compound: Cc1ccc(NC(=O)c2ccc(CN3CCN(C)CC3)cc2)cc1Nc1nccc(-c2cccnc2)n1 [Imatinib] + CC(=O)c1c(C)c2cnc(Nc3ccc(N4CCNCC4)cn3)nc2n(C2CCCC2)c1=O [Palbociclib] (partner 0.5 µM)
Procedure, shortened: (§1)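 Lung cancer cell lines were pin-tool dosed in 1536-well plates on the day after seeding, with either a lone drug or a fixed anchor-drug dose plus five library-drug doses (not always all listed) in √10 steps. Nuclei were counted on 4× images after 5 days. Relative viability is the ratio of treated-well to vehicle-well nuclei counts, with each value a median of duplicate plates.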

Imatinib + Navitoclax = compound: Cc1ccc(NC(=O)c2ccc(CN3CCN(C)CC3)cc2)cc1Nc1nccc(-c2cccnc2)n1 [Imatinib] + CC1(C)CCC(c2ccc(Cl)cc2)=C(CN2CCN(c3ccc(C(=O)NS(=O)(=O)c4ccc(N[C@H](CCN5CCOCC5)CSc5ccccc5)c(S(=O)(=O)C(F)(F)F)c4)cc3)CC2)C1 [Navitoclax] (partner 0.5 µM)
Procedure, shortened: as §1

Imatinib + Crizotinib = compound: Cc1ccc(NC(=O)c2ccc(CN3CCN(C)CC3)cc2)cc1Nc1nccc(-c2cccnc2)n1 [Imatinib] + C[C@@H](Oc1cc(-c2cnn(C3CCNCC3)c2)cnc1N)c1c(Cl)ccc(F)c1Cl [Crizotinib] (partner 1 µM)
Procedure, shortened: as §1

Imatinib + Vorinostat = compound: Cc1ccc(NC(=O)c2ccc(CN3CCN(C)CC3)cc2)cc1Nc1nccc(-c2cccnc2)n1 [Imatinib] + O=C(CCCCCCC(=O)Nc1ccccc1)NO [Vorinostat] (partner 1 µM)
Procedure, shortened: as §1

Cell Line | relative viability (Imatinib + Palbociclib; first compound 0.02 µM) | relative viability (Imatinib + Palbociclib; first compound 0.06325 µM) | relative viability (Imatinib + Palbociclib; first compound 0.2 µM) | relative viability (Imatinib + Palbociclib; first compound 0.6325 µM) | relative viability (Imatinib + Palbociclib; first compound 2 µM) | relative viability (Imatinib + Navitoclax; first compound 0.02 µM) | relative viability (Imatinib + Navitoclax; first compound 0.2 µM) | relative viability (Imatinib + Navitoclax; first compound 0.6325 µM) | relative viability (Imatinib + Crizotinib; first compound 0.02 µM) | relative viability (Imatinib + Crizotinib; first compound 0.06325 µM) | relative viability (Imatinib + Crizotinib; first compound 0.2 µM) | relative viability (Imatinib + Crizotinib; first compound 0.6325 µM) | relative viability (Imatinib + Crizotinib; first compound 2 µM) | relative viability (Imatinib + Vorinostat; first compound 0.02 µM) | relative viability (Imatinib + Vorinostat; first compound 0.2 µM) | relative viability (Imatinib + Vorinostat; first compound 0.6325 µM) | relative viability (Imatinib + Vorinostat; first compound 2 µM) | relative viability (Imatinib + Vorinostat; first compound 0.06325 µM) | relative viability (Imatinib + Navitoclax; first compound 2 µM) | relative viability (Imatinib + Navitoclax; first compound 0.06325 µM)
NCI-H2405 | 0.534 | 0.57 | 0.533 | 0.493 | 0.572 | 0.984 | 0.845 | 0.706 | 0.917 | 0.879 | 0.827 | 0.772 | 0.843 | 1.06 | 1.18 | 0.942 | 0.961 | – | – | –
NCI-H1648 | 0.23 | 0.262 | 0.256 | 0.267 | 0.237 | – | – | – | – | – | – | – | – | 0.503 | 0.422 | 0.268 | 0.476 | 0.272 | – | –
NCI-H1915 | 0.523 | – | 0.556 | 0.456 | 0.518 | 0.788 | 0.807 | 0.759 | 0.905 | – | 1.03 | 0.885 | 0.897 | 0.613 | 0.516 | 0.461 | 0.471 | – | 0.777 | –
SW 1573 | 0.404 | 0.435 | 0.41 | 0.265 | 0.405 | 1.12 | 1.21 | 1.06 | 0.996 | – | 0.956 | 0.726 | 0.755 | 0.802 | 0.973 | 0.9 | 0.709 | 0.392 | 1.1 | 0.955
EKVX | 0.377 | – | 0.384 | 0.456 | – | 1.18 | 0.983 | 0.929 | 0.937 | 0.861 | 1.08 | 0.886 | – | 0.665 | 0.753 | 0.881 | 0.699 | – | 0.973 | 0.859
NCI-H358 | 0.159 | 0.138 | 0.153 | 0.142 | 0.146 | – | – | – | 0.616 | – | 0.571 | 0.555 | 0.616 | 0.863 | 0.642 | 0.692 | 0.729 | 0.83 | – | –
HCC-78 | 0.468 | 0.527 | 0.528 | 0.452 | 0.499 | 0.725 | 0.823 | 0.7 | 0.334 | 0.344 | 0.36 | 0.314 | 0.322 | 0.417 | 0.383 | 0.447 | 0.492 | 0.344 | 0.818 | 0.62
LXF-289 | 0.602 | – | 0.655 | 0.556 | 0.578 | 0.98 | 1.08 | 0.907 | 0.881 | 0.826 | 0.876 | 0.814 | 0.777 | 0.782 | 0.798 | 0.736 | 0.783 | – | 0.924 | 0.944
NCI-H2085 | 0.447 | 0.45 | 0.506 | 0.481 | 0.47 | 1.16 | 1.33 | 1.13 | 0.826 | 0.891 | 0.903 | 0.839 | 0.841 | 0.755 | 0.772 | 0.743 | 0.768 | 0.683 | – | 1.07
NCI-H441 | 0.22 | 0.213 | 0.229 | 0.229 | 0.233 | 0.647 | 0.606 | 0.612 | 0.659 | 0.796 | 0.796 | 0.879 | 0.737 | 0.96 | 0.893 | 0.858 | 0.737 | 1.07 | 0.572 | 0.675
201T | 0.337 | 0.336 | 0.35 | 0.329 | 0.361 | 1.24 | 1.19 | 1.2 | – | – | 1.09 | 0.993 | 1.02 | 0.996 | – | 0.954 | 0.984 | 0.405 | 1.18 | –
IA-LM | – | – | – | – | – | 0.909 | 1.05 | 0.83 | 0.991 | 0.744 | 0.999 | 0.781 | 0.735 | – | 1.14 | 1.16 | 0.923 | 0.357 | 0.754 | 0.813
NCI-H1792 | 0.608 | 0.542 | 0.655 | 0.573 | 0.736 | 0.744 | 0.761 | 0.644 | 1.4 | – | 0.931 | 0.92 | 0.946 | – | – | – | – | – | 0.567 | 0.557
NCI-H661 | 0.428 | 0.368 | 0.393 | 0.394 | 0.412 | – | – | – | – | 0.806 | 1.05 | – | 0.869 | 0.823 | 0.845 | 0.778 | 0.74 | 0.87 | – | –
LCLC-103H | 0.465 | 0.499 | 0.457 | 0.434 | 0.418 | – | – | – | 1.16 | – | – | 0.937 | – | 0.768 | 0.814 | 0.766 | 0.779 | 0.584 | – | –
NCI-H1793 | 0.293 | – | 0.315 | 0.291 | 0.307 | 0.378 | 0.409 | 0.362 | – | – | – | – | – | 0.703 | 0.94 | 0.716 | 0.565 | – | 0.513 | –
NCI-H650 | 0.303 | 0.356 | 0.353 | 0.349 | 0.298 | – | – | – | 0.708 | 0.913 | 0.916 | 0.656 | 0.812 | 0.388 | 0.448 | 0.466 | 0.466 | 0.597 | – | –
NCI-H1299 | – | – | – | – | – | 1.02 | 1.08 | 1.01 | – | – | – | – | – | – | – | – | – | – | 1.04 | 1.11
Calu-6 | – | – | – | – | – | 0.976 | 0.777 | 0.85 | 1.09 | 1.17 | 0.985 | 0.818 | 0.652 | – | – | – | – | – | 0.814 | 0.804
NCI-H1395 | 0.622 | – | 0.579 | 0.526 | 0.589 | 1.07 | 1.04 | 0.979 | – | – | – | – | – | 0.687 | 0.67 | 0.698 | 0.594 | – | 0.989 | –
NCI-H596 | – | – | – | – | – | 1.07 | 1 | 0.876 | – | 0.991 | 1.06 | 0.928 | 0.975 | 0.648 | 0.59 | 0.586 | 0.623 | 0.481 | – | 0.861
A-427 | 0.533 | 0.555 | 0.51 | 0.514 | 0.543 | 1.05 | 0.998 | 0.945 | 0.981 | – | 0.993 | 0.755 | – | – | – | – | – | – | 0.949 | –
